Experimental data taken from patent publication US20020091086A1, “Peptides that block viral infectivity and methods of use thereof” (priority 1999, published 2002).
Peptide text beside a SMILES is read from it.

Legend:
[1] = single intravenous dose toxicity in adult mice; assay type: in vivo; conditions: intravenous injection in the tail vein, up to 1 g per kilo bodyweight
Method: In this example, the results from several in vivo toxicology studies on small peptides administered in large doses to rodents are presented. In a first experiment, a large single dose of small peptide was delivered to mice and the toxic effects were analyzed. […] In a second experiment, several doses of varying amounts of a small peptide were delivered to mice for almost three weeks. Groups of mice (five mice in each group) were given intraperitoneal injections of GPG-NH2 (0.01, 0.1 and 1 g per kilo bodyweight and day, respectively) starting at an age of 6 days. Daily injections were continued for 18 days. […] In a similar experiment, a four week toxicology study of GPG-NH2 was performed by Scantox A/S in Denmark. GPG-NH2 was given orally to rats at doses up to 1 g per kilo bodyweight per day for twenty eight days.

[2] = storage stability of capsules; assay type: physicochemical; conditions: Five-hundred milligram capsules; stored at 4° C.
From the text: Compositions of the peptide agents suitable for gastrointestinal administration include, but not limited to, pharmaceutically acceptable powders, pills or liquids for ingestion and suppositories for rectal administration. Due to the most common routes of HIV infection and the ease of use, gastrointestinal administration, particularly oral, is the preferred embodiment of the present invention. […] As previously shown in other virus-host systems, specific antiviral activity of small peptides can be detected in serum after oral administration. (Miller et al., Appl. Microbiol., 16:1489 (1968)). Since small peptides apparently evade degradation by the patient's digestive system, they are ideal for oral administration.

Jurkat-tat III = assay: cytotoxicity, trypan-blue dye exclusion and cell counting; conditions: 40 mM, 3 days of culture
Method: (§1) The in vitro 50% cytotoxic concentrations (CC50) of various cell lines was also assessed. Accordingly, different concentrations of GPG-NH2, up to 40 mM, was supplemented into the medium culture of T-cell lines HUT78, H9, CEM-SS, MT-2 and (non) induced ACH-2, as well as, the macrophage derived cell lines […], THP-1 and (non) induced U-1 cells. After 3 days of incubation, the number of cells were counted.

MT-2 = assay: as above; conditions: 40 mM, 3 days of culture
Method: as §1

HUT78 = assay: as above; conditions: 40 mM, 3 days of culture
Method: as §1

recombinant gp120 = target: T1, recombinant gp120 (Human immunodeficiency virus type 1 group M subtype B, UniProt P03375); assay: dialysis-based binding assay with 14C-GPG-NH2, gp120; set-up: species or system HIV-1; conditions: dialysis 2 days at 4° C. against 27.5 μM 14C-GPG-NH2; buffer 1.816
T1 construct: recombinant proteins p24 and gp120 (gifts from the AIDS program, NCIB); purchased AIDS program, NCIB (gift, not bought)
Method: A dialysis-based binding assay was conducted using a dialysis membrane with a pore size of less than 10 kD. (Slide-A-Lyzer, Pierce). Fifty microliters of a 10 μM stock of the recombinant proteins p24 and gp120 (gifts from the AIDS program, NCIB) and BSA (Sigma) were introduced into separate dialysis membranes and the proteins were dialyzed at 4° C. for 2 days against a 500 ml solution composed of 150 mM NaCl and 50 mM Tris-HCl, pH 7.4 buffer and 27.5 μM of ^14C-GPG-NH2 (Amersham Ltd. UK). Subsequently, ten or five microliter aliquots of the dialyzed p24, gp120, and BSA were removed and mixed with 3 ml of ReadySafe (Beckman) in a scintillation vial. The C^14 was then detected by scintillation counting.

HUT78 cells = assay: in vitro uptake of 14C-labelled GPG-NH2 into cells; assay type: in vitro ADME; conditions: 165 nCi (0.7 μM)
Method: (§2) Additionally, the in vitro uptake of small peptides from the culture medium into the cells was studied in a series of experiments. Accordingly, HUT78, Jurkat-tat III, and MT-2 cells were incubated with ^14C-labelled GPG-NH2 165 nCi (equivalent to 0.7 μM of GPG-NH2). An uptake of the small peptide was observed and between 8% (Jurkat-tat III cells) and 20% (HUT78 cells) of the GPG-NH2 was incorporated in the cells.

Jurkat-tat III cells = assay: in vitro uptake of 14C-labelled GPG-NH2 into cells; assay type: in vitro ADME; conditions: 165 nCi (0.7 μM)
Method: as §2

SF162 strain of HIV-1 = assay: antiviral activity of plasma of rats fed GPG-NH2 on infected PBMC, p24; assay type: cell-based; conditions: rat plasma diluted 1/5
Method: For the assessment of biologically active GPG-NH2 in the plasma of animals fed the small peptide, plasma samples were prepared from blood obtained from the rats of the four week toxicology study the day after the last feeding. The plasma samples were diluted ⅕ in RPMI medium and were adminstered to PBMC infected with the SF162 strain of HIV-1, as described above. Viral infectivity was then monitored at seven, eleven, and fourteen days post infection by detecting the amount of p24 in the supernatent using a commercially available detection assay. (Abbott). […] In some cases, the administration of as little as 10 μM GPG-NH2 provided a sufficient concentration of small peptide in the plasma to enable the inhibition of HIV-1 replication. The percent reduction was calculated as in Table 6. The results from these experiments established that small peptides described herein can be maintained at concentrations in the body of an animal that are effective at inhibiting HIV replication.

[3] = Exp. 1, day 7, Feeding GPG 10 (mg/ml)
[4] = Exp. 1, day 7, Feeding GPG 30 (mg/ml)
[5] = Exp. 1, day 7, Feeding GPG 100 (mg/ml)
[6] = Exp. 1, day 14, Feeding GPG 10 (mg/ml)
[7] = Exp. 1, day 14, Feeding GPG 30 (mg/ml)
[8] = Exp. 1, day 14, Feeding GPG 100 (mg/ml)
[9] = Exp. 2, day 7, Feeding GPG 10 (mg/ml)
[10] = Exp. 2, day 7, Feeding GPG 30 (mg/ml)
[11] = Exp. 2, day 7, Feeding GPG 100 (mg/ml)
[12] = Exp. 2, day 14, Feeding GPG 10 (mg/ml)
[13] = Exp. 2, day 14, Feeding GPG 30 (mg/ml)
[14] = Exp. 2, day 14, Feeding GPG 100 (mg/ml)
[15] = Exp. 3, day 14, Feeding GPG 10 (mg/ml)
[16] = Exp. 3, day 14, Feeding GPG 30 (mg/ml)
[17] = Exp. 3, day 14, Feeding GPG 100 (mg/ml)
[18] = Exp. 3, day (number not given), Feeding GPG 10 (mg/ml)
[19] = Exp. 3, day (number not given), Feeding GPG 30 (mg/ml)
[20] = Exp. 3, day (number not given), Feeding GPG 100 (mg/ml)
[21] = Exp. 4, day 11, Feeding GPG 10 (mg/ml)
[22] = Exp. 4, day 11, Feeding GPG 30 (mg/ml)
[23] = Exp. 4, day 11, Feeding GPG 100 (mg/ml)
[24] = Exp. 5, day 7, Feeding GPG 10 (mg/ml)
[25] = Exp. 5, day 7, Feeding GPG 30 (mg/ml)
[26] = Exp. 5, day 7, Feeding GPG 100 (mg/ml)

NCC(=O)N1CCC[C@H]1C(=O)NCC(N)=O [GPG-NH2, glycyl-prolyl-glycine amide] (H-Gly-Pro-Gly-NH2)
toxic effects [1]: no apparent toxic effects | stability on storage [2]: ≥ 12 months | inhibition of cell growth (Jurkat-tat III): ~40% | inhibition of cell growth (MT-2): ~40% | inhibition of cell growth (HUT78): ~40% | radioactive GPG-NH2 associated with gp120 (recombinant gp120): 1.745 μCi/ml | GPG-NH2 incorporated in the cells (HUT78 cells): 20% | GPG-NH2 incorporated in the cells (Jurkat-tat III cells): 8% | % reduction (SF162 strain of HIV-1; [3]): 82.8% | p24 (SF162 strain of HIV-1; [3]): 93.3 pg/mL | % reduction (SF162 strain of HIV-1; [4]): 95.6% | p24 (SF162 strain of HIV-1; [4]): 24.0 pg/mL | % reduction (SF162 strain of HIV-1; [5]): 67.8% | p24 (SF162 strain of HIV-1; [5]): 174.7 pg/mL | % reduction (SF162 strain of HIV-1; [6]): 92.8% | p24 (SF162 strain of HIV-1; [6]): 1636 pg/mL | % reduction (SF162 strain of HIV-1; [7]): 95.9% | p24 (SF162 strain of HIV-1; [7]): 938 pg/mL | % reduction (SF162 strain of HIV-1; [8]): 59.4% | p24 (SF162 strain of HIV-1; [8]): 9211 pg/mL | % reduction (SF162 strain of HIV-1; [9]): 31.9% | p24 (SF162 strain of HIV-1; [9]): 219.2 pg/mL | % reduction (SF162 strain of HIV-1; [10]): 39.6% | p24 (SF162 strain of HIV-1; [10]): 194.3 pg/mL | % reduction (SF162 strain of HIV-1; [11]): 46.1% | p24 (SF162 strain of HIV-1; [11]): 173.5 pg/mL | % reduction (SF162 strain of HIV-1; [12]): 0% | p24 (SF162 strain of HIV-1; [12]): 4760.8 pg/mL | % reduction (SF162 strain of HIV-1; [13]): 12.3% | p24 (SF162 strain of HIV-1; [13]): 3574.4 pg/mL | % reduction (SF162 strain of HIV-1; [14]): 45.9% | p24 (SF162 strain of HIV-1; [14]): 2203.7 pg/mL | % reduction (SF162 strain of HIV-1; [15]): 11.6% | p24 (SF162 strain of HIV-1; [15]): 6700.6 pg/mL | % reduction (SF162 strain of HIV-1; [16]): 9.1% | p24 (SF162 strain of HIV-1; [16]): 6893.0 pg/mL | % reduction (SF162 strain of HIV-1; [17]): 0% | p24 (SF162 strain of HIV-1; [17]): 7578.4 pg/mL | % reduction (SF162 strain of HIV-1; [18]): 0% | p24 (SF162 strain of HIV-1; [18]): 255.6 pg/mL | % reduction (SF162 strain of HIV-1; [19]): 41.7% | p24 (SF162 strain of HIV-1; [19]): 107.3 pg/mL | % reduction (SF162 strain of HIV-1; [20]): 47.3% | p24 (SF162 strain of HIV-1; [20]): 96.9 pg/mL | % reduction (SF162 strain of HIV-1; [21]): 29.8% | p24 (SF162 strain of HIV-1; [21]): 170 pg/mL | % reduction (SF162 strain of HIV-1; [22]): 0% | p24 (SF162 strain of HIV-1; [22]): 487.4 pg/mL | % reduction (SF162 strain of HIV-1; [23]): 78.6% | p24 (SF162 strain of HIV-1; [23]): 51.7 pg/mL | % reduction (SF162 strain of HIV-1; [24]): 73.9% | p24 (SF162 strain of HIV-1; [24]): 79.6 pg/mL | % reduction (SF162 strain of HIV-1; [25]): 0% | p24 (SF162 strain of HIV-1; [25]): 439.3 pg/mL | % reduction (SF162 strain of HIV-1; [26]): 80.3% | p24 (SF162 strain of HIV-1; [26]): 60 pg/mL
